Experiment in all cases: competitive isoTOP-ABPP
Type in all cases: binding

The target of assay [1] is T1, GTPBP3 tRNA modification GTPase GTPBP3, mitochondrial (Homo sapiens, UniProt Q969Y2).
T1 construct: isoTOP-ABPP experiments performed in cell lysates (in vitro); endogenous in cells; host or cells: soluble proteome of human cancer cell lines (MDA-MB-231; Ramos and Jurkat also prepared)
T1 sequence (Q969Y2 21-492): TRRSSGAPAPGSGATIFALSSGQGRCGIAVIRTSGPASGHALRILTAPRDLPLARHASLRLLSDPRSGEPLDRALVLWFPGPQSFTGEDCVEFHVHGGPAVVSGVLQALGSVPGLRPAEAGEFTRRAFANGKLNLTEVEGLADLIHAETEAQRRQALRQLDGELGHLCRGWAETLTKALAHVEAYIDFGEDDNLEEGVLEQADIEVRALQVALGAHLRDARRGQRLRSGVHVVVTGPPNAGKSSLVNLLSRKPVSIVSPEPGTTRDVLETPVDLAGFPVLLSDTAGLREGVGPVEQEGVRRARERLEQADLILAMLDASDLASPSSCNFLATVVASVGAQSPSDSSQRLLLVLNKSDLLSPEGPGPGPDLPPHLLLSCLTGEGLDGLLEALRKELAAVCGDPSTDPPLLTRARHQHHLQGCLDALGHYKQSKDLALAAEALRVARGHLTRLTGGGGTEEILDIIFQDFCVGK
The following applies: 50 uM, 231 sol, in vitro; for R value (DMSO/fragment) for probe 1 labeling: Q969Y2_K492. Here is the method: (§1) In vitro covalent fragment treatment for isoTOP-ABPP. All compounds were made up as solutions in DMSO (100×) and were used at a final concentration of 50 μM for activated esters and 100 μM for guanidinylating agents. For each profiling sample, 0.5 ml of lysate was treated with 5 μl of the 100× compound stock solution or 5 μl of DMSO. Samples were treated with activated esters for
(§2) STP-alkyne labeling and click chemistry. For concentration-dependent reactivity measurements by isoTOP-ABPP, 0.5 ml proteome aliquots were treated at ambient temperature with 1 mM STP-alkyne 1 (5 μl of 100 mM stock in DMSO) and 0.1 mM STP alkyne 1 (5 μl of 10 mM stock in DMSO), respectively. For competitive isoTOP-ABPP, after in vitro fragment treatment (detailed above), the samples were labeled for 1 h at ambient temperature with 0.1 mM STP-alkyne 1 (5 μl of 10 mM stock in DMSO). Samples were conjugated by copper-mediated azide-alkyne cycloaddition (CuAAC) to either the light (1 mM STP-alkyne or fragment treated) or heavy (0.1 mM STP-alkyne or DMSO treated) TEV tags (10 μl of 5 mM stocks in DMSO, final concentration=100 μM) using tris(2-carboxyethyl)phosphine hydrochloride
(§3) R value calculation and processing. The ratios of light and heavy MS1 peaks for each unique peptide were quantified with a CIMAGE software using default parameters (3 MS1 acquisitions per peak and signal to noise threshold set to 2.5). For reactivity measurements by isoTOP-ABPP, the R value was calculated from the ratio of MS1 peak areas, comparing the 1 mM STP alkyne sample (light TEV tag) with the 0.1 mM STP alkyne sample (heavy TEV tag). For competitive isoTOP-ABPP, the R value was calculated from the ratio of MS1 peak areas, comparing the DMSO treated sample (heavy TEV tag) with the compound treated sample (light TEV tag). […] Ratios for unique peptide entries are calculated for each experiment; overlapping peptides with the same modified lysine (for example, different charge states, MudPIT chromatographic steps or tryptic termini) are grouped together and the median ratio is reported as the final ratio (R). The peptide ratios reported by CIMAGE were further filtered to ensure the removal or correction of low-quality ratios in each individual data set. The quality filters applied were the following: removal of half tryptic peptides; for ratios with high standard deviations from the median (90% of the median or above) the lowest ratio was taken instead of the median; removal of peptides with R=20 and only a single MS2 event triggered during the elution of the parent ion; manual annotation of all the peptides with ratios of 20, removing any peptides with low quality elution profiles that remained after the previous curation steps (only done for competitive isoTOP-ABPP).
(§4) Cross-data processing for fragment screening. For compound treated samples, biological replicates of the same condition were averaged, if the standard deviation was below 60% of the mean; otherwise, for lysines with at least one R value <4 for a particular compound, the lowest value of the ratio set was taken. For lysines, where all R values for a particular compound were ≥4, the average was reported. For peptides containing several possible modified lysines, the lysine with the highest number of quantification events was used for analysis and the remaining, redundant peptides were reported as alternative modification sites. Peptides included in the aggregate dataset (those used for further bioinformatics and statistical analyses) were required to have been quantified in 2 experiments for competitive isoTOP-ABPP. Lysines were categorized as liganded, if they had at least one ratio R≥4 (hit fragments). For liganded lysines with R=20 for all liganding events, lysines were required to have been quantified with R=20 in two separate experiments and were further required to have been quantified with R<20 in one additional experiment.

Assay [2] has as its target T2, GBAS Protein NipSnap homolog 2 (Homo sapiens, UniProt O75323).
T2 construct: isoTOP-ABPP experiments performed in cell lysates (in vitro); endogenous in cells; host or cells: MDA-MB-231 soluble lysate
T2 sequence (O75323 24-286): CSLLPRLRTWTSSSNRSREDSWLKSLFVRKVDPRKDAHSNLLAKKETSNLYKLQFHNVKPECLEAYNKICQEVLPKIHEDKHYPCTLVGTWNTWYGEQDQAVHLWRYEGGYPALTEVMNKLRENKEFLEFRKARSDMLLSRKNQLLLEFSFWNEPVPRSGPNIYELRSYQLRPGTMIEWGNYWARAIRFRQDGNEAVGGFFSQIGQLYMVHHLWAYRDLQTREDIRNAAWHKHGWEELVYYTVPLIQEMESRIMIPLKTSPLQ
As to conditions: 50 uM, 231 sol, in vitro; for R value (DMSO/fragment) for probe 1 labeling: O75323_K75. On the procedure:
as §1, §2, §3, §4

Assay [3] deals with T3, RPL10 60S ribosomal protein L10 (Homo sapiens, UniProt P27635).
T3 construct: isoTOP-ABPP experiments performed in cell lysates (in vitro); endogenous in cells; host or cells: soluble proteome of human cancer cell lines (MDA-MB-231; Ramos and Jurkat also prepared)
The following applies: 50 uM, 231 sol, in vitro; for R value (DMSO/fragment) for probe 1 labeling: P27635_K121. On the procedure:
as §1, §2, §3, §4

A further assay deals with T4, FAH Fumarylacetoacetase (Homo sapiens, UniProt P16930).
T4 construct: isoTOP-ABPP experiments performed in cell lysates (in vitro); endogenous in cells; host or cells: soluble proteome of human cancer cell lines (MDA-MB-231; Ramos and Jurkat also prepared)
T4 sequence (P16930 1-419): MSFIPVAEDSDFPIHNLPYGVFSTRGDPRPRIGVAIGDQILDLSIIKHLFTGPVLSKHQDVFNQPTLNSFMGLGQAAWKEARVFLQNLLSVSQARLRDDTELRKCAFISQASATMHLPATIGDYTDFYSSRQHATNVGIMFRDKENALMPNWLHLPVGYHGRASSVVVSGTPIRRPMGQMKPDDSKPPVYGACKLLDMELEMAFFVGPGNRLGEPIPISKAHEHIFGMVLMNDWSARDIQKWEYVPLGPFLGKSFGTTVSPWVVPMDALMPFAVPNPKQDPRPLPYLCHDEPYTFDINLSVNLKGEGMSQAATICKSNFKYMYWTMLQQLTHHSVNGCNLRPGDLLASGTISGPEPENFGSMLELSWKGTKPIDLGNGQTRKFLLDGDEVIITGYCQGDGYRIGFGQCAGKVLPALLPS
The following applies: 50 uM, 231 sol, in vitro; for R value (DMSO/fragment) for probe 1 labeling: P16930_K241. Here is the method:
as §1, §2, §3, §4

Turning to `O=C(Oc1c(F)c(F)c(F)c(F)c1F)C(c1ccccc1)c1ccccc1` [fragment 20, Pentafluorophenyl 2,2-diphenylacetate], the “R value (DMSO/fragment) for probe 1 labeling” value (from here on “R value (DMSO/fragment)”) was determined as 1.1 in assay [1], 0.9 in assay [2], 0.7 in assay [3] and 1.0 at FAH Fumarylacetoacetase.

As to `O=C(Oc1c(F)c(F)c(F)c(F)c1F)c1cc(C(F)(F)F)cc(C(F)(F)F)c1` [fragment 21, Pentafluorophenyl 3,5-bis(trifluoromethyl)benzoate], the “R value (DMSO/fragment)” value is 1.3 in assay [1], 0.8 in assay [2], 0.8 in assay [3] and 2.0 on FAH Fumarylacetoacetase.

As to `Cn1cc(CC(=O)Oc2c(F)c(F)c(F)c(F)c2F)c2ccccc21` [fragment 22, Pentafluorophenyl 2-(1-methyl-1H-indol-3-yl)acetate], the “R value (DMSO/fragment)” value is recorded as 1.1 in assay [1], 1.5 in assay [2], 0.9 in assay [3] and 3.0 at FAH Fumarylacetoacetase.

On to `O=C(CCc1coc2cc(F)ccc2c1=O)Oc1c(F)c(F)c(F)c(F)c1F` [fragment 26, Pentafluorophenyl 3-(7-fluoro-4-oxo-4H-chromen-3-yl)propanoate], for which, in assay [1], the “isoTOP-ABPP reactivity ratio at lysine Q969Y2_K492” value is given as 5.0. In addition, the “isoTOP-ABPP reactivity ratio at lysine O75323_K75” value in assay [2] came to 4.2. Moreover, in assay [3], the “isoTOP-ABPP reactivity ratio at lysine P27635_K121” value is 0.9. Besides, the “isoTOP-ABPP reactivity ratio at lysine P16930_K241” value on FAH Fumarylacetoacetase worked out at 5.0.

As for `O=C(CCc1cn(-c2ccccc2)nc1-c1ccccc1)Oc1ccc([N+](=O)[O-])cc1[N+](=O)[O-]` [fragment 29, 2,4-Dinitrophenyl 3-(1,3-diphenyl-1H-pyrazol-4-yl)propanoate], in assay [1], the “isoTOP-ABPP reactivity ratio at lysine Q969Y2_K492” value amounted to 20.0. Moreover, in assay [2], the “isoTOP-ABPP reactivity ratio at lysine O75323_K75” value is 1.0. The “isoTOP-ABPP reactivity ratio at lysine P27635_K121” value in assay [3] was determined as 1.4. Also, the “isoTOP-ABPP reactivity ratio at lysine P16930_K241” value on FAH Fumarylacetoacetase is given as 1.7.

In the case of `O=C(Oc1ccc([N+](=O)[O-])cc1[N+](=O)[O-])C(c1ccccc1)c1ccccc1` [fragment 30, 2,4-Dinitrophenyl 2,2-diphenylacetate], the “isoTOP-ABPP reactivity ratio at lysine Q969Y2_K492” value in assay [1] is 1.5. The “isoTOP-ABPP reactivity ratio at lysine O75323_K75” value in assay [2] was 1.1. In addition, the “isoTOP-ABPP reactivity ratio at lysine P27635_K121” value in assay [3] was 1.1. Besides, on FAH Fumarylacetoacetase, the “isoTOP-ABPP reactivity ratio at lysine P16930_K241” value was 2.7.

For the origin of these results see patent US20210255193A1, “LYSINE REACTIVE PROBES AND USES THEREOF” (The Scripps Research Institute, priority 2017, published 2021).
